Patent publication US20030223978A1, “Conjugates of an AMF ligand and a cytotoxic molecule for use in cancer therapy” (priority 1998, published 2003)

Assays:
[1] = tested on: B16-F10 metastatic murine melanoma cell line; assay: Cell toxicity of AMF-doxorubicin conjugate; type: cell-based; conditions: approximately 0.3, 3, or 30 μg/ml; 3 (Expt. 1) or 4 days (Expt. 2); increasing concentrations
Method: Rabbit PHI is internalized by murine NIH-3T3 fibroblasts (Benlimame et al., 1998, Molec. Biol. Cell 9: 1773-1786) and the ability of the AMF-doxorubicin conjugate to kill metastatic tumor cells was tested with the B16-F10 metastatic murine melanoma cell line. B16-F10 cells were plated at a density of 4,000 cells/cm2 and after 24 hours in culture AMF-doxorubicin conjugate was added at a concentration of approximately 0.3, 3, or 30 μg/ml (FIG. 8). After 3 (Expt. 1) or 4 days (Expt. 2) the cultures were fixed and cells remaining attached to the substrate counted. The number of cells remaining attached to the substrate is presented relative to control cells to which no AMF-doxorubicin was added.

NIH-3T3 cells [2] = assay: bAMF internalization, immunofluorescence and confocal microscopy; type: cell-based, mouse
Method: For the AMF internalization studies, NIH-3T3 cells were pulsed with biotinylated AMF (˜250-500 μg/ml) and chased at 37° C. for the indicated periods of time prior to fixation by the addition of precooled (−80° C.) methanol/acetone directly to the cells. […] Disruption of clathrin coated pits and vesicles by cytoplasmic acidification was performed essentially as previously described (Heuser, J. (1989) J. Cell Biol. 108, 401-411). NIH-3T3 cells were pretreated with acidification medium (DMEM containing 5% calf serum and 50 mM MES pH 5.5) for 15 minutes at 37° C. prior to addition of bAMF in acidification medium for one hour at 37° C. To ensure that cellular acidification blocked clathrin-mediated endocytosis, Texas Red transferrin (50 μg/ml) was added to cells in regular or acidification medium for 30 minutes at 37° C. after which the cells were fixed with 3% paraformaldehyde.
After labeling the coverslips were mounted in Airvol (Air Products and Chemicals Inc., Allentown, Pa.) and viewed in a Zeiss Axioskop fluorescent microscope equipped with a 63× Plan Apochromat objective and selective filters. Confocal microscopy was performed with the 60× Nikon Plan Apochromat objective of a dual channel BioRad 600 laser scanning confocal microscope equipped with a krypton/argon laser and the corresponding dichroic reflectors to distinguish fluorescein and Texas Red labeling. Confocal images were printed using a Polaroid TX 1500 video printer.

NIH-3T3 cells [3] = assay: bAMF internalization pathway by post-embedding electron microscopy; type: cell-based, mouse
Method: Post-embedding immunolabeling for AMF-R was performed as previously described (Benlimame, N. et al. (1995) J. Cell Biol. 129, 459-471). Cells grown on petri dishes were rinsed and incubated at 37° C. in Ringer's solution for 15 minutes before fixing in Ringer's solution containing 2% paraformaldehyde and 0.2% glutaraldehyde for 30 minutes at 37° C. The fixed cells were rinsed in PBS/CM, scraped from the petri dish and collected by centrifugation. The cell pellet was post-fixed for 30 minutes with 1% osmium tetroxide in PBS/CM containing 1.5% potassium ferrocyanide (reduced osmium), dehydrated and embedded in LR-White resin. […] The numerical density of gold particles associated with plasma membrane, caveolae, clathrin coated pits and vesicles, smooth tubules and vesicles, and rough ER was determined. The length of the limiting membrane of the indicated organelles was measured using a Sigma-Scan measurement system and the gold particles associated with these organelles counted. […] Control labeling with non-immune rat IgM antibodies was analyzed similarly.
To follow the endocytic pathway of AMF by electron microscopy, biotinylated AMF was internalized as described for the fluorescence studies and detected by postembedding labeling with streptavidin conjugated to 10 nm gold as described above.

AMF-R = target: T1, AMF-R (Mus musculus, UniProt Q9R049); assay: Cell surface labeling of viable cells at 4° C. with bAMF and anti-AMF-R; type: binding; conditions: viable NIH-3T3 cells, confocal
T1 construct: Confocal imaging of cell surface labeling of viable NIH-3T3 cells at 4° C. with bAMF; endogenous in cells; host or cells: NIH-3T3 fibroblasts (ATCC, a highly spread clone)
T1 sequence (Q9R049 whole entry): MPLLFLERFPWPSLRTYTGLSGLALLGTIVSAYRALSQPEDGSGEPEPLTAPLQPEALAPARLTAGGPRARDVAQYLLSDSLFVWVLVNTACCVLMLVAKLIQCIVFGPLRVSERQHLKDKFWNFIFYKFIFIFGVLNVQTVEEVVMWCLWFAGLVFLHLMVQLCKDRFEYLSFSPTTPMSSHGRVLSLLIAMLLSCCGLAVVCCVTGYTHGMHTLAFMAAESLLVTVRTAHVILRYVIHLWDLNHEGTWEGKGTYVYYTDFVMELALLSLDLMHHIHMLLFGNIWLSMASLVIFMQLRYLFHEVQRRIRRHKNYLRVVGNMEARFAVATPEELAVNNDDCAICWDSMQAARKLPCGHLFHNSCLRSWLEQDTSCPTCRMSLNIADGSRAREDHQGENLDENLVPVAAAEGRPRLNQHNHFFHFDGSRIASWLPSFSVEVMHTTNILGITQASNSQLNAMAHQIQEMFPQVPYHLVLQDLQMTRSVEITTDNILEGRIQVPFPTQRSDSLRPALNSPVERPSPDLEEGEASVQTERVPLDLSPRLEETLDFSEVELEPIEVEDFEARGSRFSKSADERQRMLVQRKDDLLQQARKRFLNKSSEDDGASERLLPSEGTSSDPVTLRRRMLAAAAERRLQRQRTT
Method: Cells were plated on glass cover slips 2 days prior to each experiment at a concentration of 30,000 cells/35 mm dish. For AMF-R surface labeling, the cells were incubated in DMEM minus bicarbonate supplemented with 25 mM Hepes pH 7.2 and 2.5% serum for 15 min at 4° C. prior to labeling with anti-AMF-R primary antibody or biotinylated AMF at 4° C. for 30 min. The cells were washed at 4° C. and then fixed with 3% paraformaldehyde in phosphate buffered saline (pH 7.4) supplemented with 0.1 mM Ca++ and 1 mM Mg++ (PBS/CM) for 15 min at room temperature. For caveolin labeling, after AMF-R surface labeling at 4° C. and fixation as above, the cells were permeabilized with 0.2% Triton X-100 for 10 min, then extensively washed with PBS/CM containing 1% BSA. The cells were incubated with rabbit anti-caveolin polyclonal antibodies, washed, and then incubated with FITC goat anti-rat IgM to reveal anti-AMF-R and Texas Red donkey anti-rabbit IgG to reveal anti-caveolin.

Substance	number of cells remaining attached to the substrate relative to control cells [1]	localization of internalized bAMF (NIH-3T3 cells [2]; 1 hour at 37° C., 10-fold excess unlabeled AMF)	localization of internalized bAMF (NIH-3T3 cells [2]; 1 hour at 37° C., medium acidified to pH 5.5 (clathrin-mediated endocytosis disrupted))	localization of internalized bAMF (NIH-3T3 cells [2]; 1 hour pulse at 37° C., regular medium)	localization of internalized bAMF (NIH-3T3 cells [2]; two hour pulse, chase of 2 or 4 hours)	localization of bAMF by streptavidin-10 nm gold (NIH-3T3 cells [3]; 10 minute pulse at 37° C.)	localization of bAMF by streptavidin-10 nm gold (NIH-3T3 cells [3]; 30 minute pulse at 37° C.)	colocalization of cell surface bAMF with anti-AMF-R labeling (AMF-R)
AMF-doxorubicin: commercially available PHI (AMF) conjugated to the cellular toxin doxorubicin by glutaraldehyde mediated crosslinking	progressive toxicity							
bAMF: Rabbit phosphohexose isomerase (AMF) biotinylated with NHS-LC-biotin		localized only to punctate structures	localized to tubules which colocalize with AMF-R tubules	localized to tubular structures which colocalize with AMF-R tubules	accumulation of bAMF labeling in tubular structures which colocalized with AMF-R tubules	localized to cell surface caveolae	localized to caveolae and smooth vesicles	high degree of colocalization
